According to paper PMC8552062, “Contributions of UDP-Glucuronosyltransferases to Human Hepatic and Intestinal Metabolism of Ticagrelor and Inhibition of UGTs and Cytochrome P450 Enzymes by Ticagrelor and its Glucuronidated Metabolite” (Frontiers in Pharmacology, 2021):

What was measured:
Type in all cases: in vitro ADME
UGT2B7 = biological target: T1, UGT2B7 (Homo sapiens, UniProt P16662); assay: UGT2B7 inhibition in HLM (3′-azide-3′-deoxythymidine glucuronidation); parameters: tissue XenoTech LLC; host or cells: pooled human liver microsomes; settings: for IC50: UGT2B7, 3′-azide-3′-deoxythymidine β-D-glucuronide formation in HLM; for inhibition at 100 µM: human, human liver microsomes (HLM), probe 3′-azide-3′-deoxythymidine, HLM, 100 μM test compound
T1 sequence (P16662 24-529): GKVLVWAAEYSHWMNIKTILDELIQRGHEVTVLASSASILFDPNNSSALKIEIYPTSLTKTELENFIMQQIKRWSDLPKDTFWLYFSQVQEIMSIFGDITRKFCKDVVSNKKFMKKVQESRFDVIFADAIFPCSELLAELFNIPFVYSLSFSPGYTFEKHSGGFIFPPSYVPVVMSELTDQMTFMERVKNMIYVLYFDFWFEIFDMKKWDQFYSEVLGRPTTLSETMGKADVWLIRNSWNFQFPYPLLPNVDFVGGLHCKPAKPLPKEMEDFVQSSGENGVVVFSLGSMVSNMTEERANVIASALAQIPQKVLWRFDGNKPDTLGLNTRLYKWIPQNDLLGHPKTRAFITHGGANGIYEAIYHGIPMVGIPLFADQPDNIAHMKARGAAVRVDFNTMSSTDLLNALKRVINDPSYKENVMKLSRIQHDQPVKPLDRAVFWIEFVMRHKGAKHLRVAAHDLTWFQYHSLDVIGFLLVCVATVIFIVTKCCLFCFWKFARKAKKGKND
Method: (§1) To assess drug-drug interactions (DDIs) potential caused by ticagrelor and ticagrelor-O-Glu through the inhibition of the major human UGTs enzymes, selective UGT probe substrates were co-incubated with ticagrelor or ticagrelor-O-Glu in HLM. The formation of metabolites, SN-38 glucuronide, chenodeoxycholic acid 24-acyl-β-D-glucuronide, trifluoperazine N-glucuronide, N-Acetyl serotonin glucuronide, mycophenolic acid glucuronide and 3′-azide-3′-deoxythymidine β-D-glucuronide, which could reflect the enzyme activities of UGT1A1, UGT1A3, UGT1A4, UGT1A6, UGT1A9 and UGT2B7, respectively, were quantified using LC-MS/MS. Three different concentrations of ticagrelor or ticagrelor-O-Glu (1, 10 and 100 μM) were added to the incubation system in the presence of selective UGT probe substrates (SN-38, chenodeoxycholic acid, trifluoperazine, N-Acetyl serotonin, mycophenolic acid and 3′-azide-3′-deoxythymidine), respectively. The assays were performed as described above. The control was treated with a vehicle solvent only. A triple determination was performed.
(§2) The percent inhibition relative to the control was calculated to indicate the UGTs or CYPs inhibition. For inhibition exceeding 50% of the control activity, nonlinear regression analysis was used to estimate the IC50 values using the GraphPad Prism 6 (GraphPad Software Inc., CA, United States).

UGT1A3 = biological target: T2, UGT1A3 (Homo sapiens, UniProt P35503); assay: UGT1A3 inhibition in HLM (chenodeoxycholic acid glucuronidation); parameters: tissue XenoTech LLC; host or cells: pooled human liver microsomes; settings: for IC50: UGT1A3, chenodeoxycholic acid 24-acyl-β-D-glucuronide formation in HLM
T2 sequence (P35503 29-534): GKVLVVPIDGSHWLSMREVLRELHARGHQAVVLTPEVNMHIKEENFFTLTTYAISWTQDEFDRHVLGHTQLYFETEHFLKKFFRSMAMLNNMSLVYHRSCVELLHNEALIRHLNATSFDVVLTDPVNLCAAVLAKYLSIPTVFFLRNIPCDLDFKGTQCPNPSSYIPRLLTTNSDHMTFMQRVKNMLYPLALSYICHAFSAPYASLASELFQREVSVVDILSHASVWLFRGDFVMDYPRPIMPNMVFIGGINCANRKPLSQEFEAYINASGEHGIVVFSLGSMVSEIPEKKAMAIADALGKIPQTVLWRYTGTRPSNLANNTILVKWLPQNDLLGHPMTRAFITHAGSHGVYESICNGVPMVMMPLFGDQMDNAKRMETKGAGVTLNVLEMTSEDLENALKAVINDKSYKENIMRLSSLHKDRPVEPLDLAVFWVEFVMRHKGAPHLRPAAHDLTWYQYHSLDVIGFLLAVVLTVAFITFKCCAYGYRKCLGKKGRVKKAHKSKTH
Method: as §1, §2

CYP3A4 = biological target: T3, CYP3A4 (Homo sapiens, UniProt P08684); assay: CYP3A4 inhibition in HLM (testosterone 6β-hydroxylase); settings: human liver microsomes, pH 7.4, probe testosterone (80 μM), 6β-hydroxy testosterone formation
T3 construct: co-incubation ticagrelor-O-Glu with selective P450 probe substrates in HLM; tissue XenoTech LLC; host or cells: pooled human liver microsomes
Method: The potential inhibitory effects of ticagrelor-O-Glu on the activities of major CYPs, i.e., CYP2B6, CYP2C8, CYP2C9, CYP2C19, CYP2D6, and CYP3A4, were evaluated by co-incubation ticagrelor-O-Glu with selective P450 probe substrates in HLM. Each incubation mixture containing 0.2 mg/ml HLM, ticagrelor-O-Glu and respective substrate (the final substrate concentrations are close to or less than the Km values: 150 μM bupropion, 1.26 μM amodiaquine, 10 μM diclofenac, 20 μM mephenytoin, 20 μM dextromethorphan and 80 μM testosterone (in house data)) in potassium phosphate buffer (100 mM, pH 7.4) was pre-incubated at 37°C for 5 min. Then, NADPH (10 mM) was added to initiate the reaction. The final volume of the incubation mixture was 100 μl. After incubation at 37°C for specific time points, the reaction was terminated by the addition of 200 μl of ice-cold methanol solution with internal standards (diazepam and furafylline). […] The formation of respective metabolites was determined to reflect P450 isoform activities. The metabolites quantified for CYP2B6, CYP2C8, CYP2C9, CYP2C19, CYP2D6, and CYP3A4 were hydroxy bupropion, N-Desethyl amodiaquine, 4′-hydroxylation diclofenac, S-4-hydroxy mephenytoin, dextrorphan and 6β-hydroxy testosterone, respectively.
The percent inhibition relative to the control was calculated to indicate the UGTs or CYPs inhibition. […]

T3 sequence (P08684 whole entry): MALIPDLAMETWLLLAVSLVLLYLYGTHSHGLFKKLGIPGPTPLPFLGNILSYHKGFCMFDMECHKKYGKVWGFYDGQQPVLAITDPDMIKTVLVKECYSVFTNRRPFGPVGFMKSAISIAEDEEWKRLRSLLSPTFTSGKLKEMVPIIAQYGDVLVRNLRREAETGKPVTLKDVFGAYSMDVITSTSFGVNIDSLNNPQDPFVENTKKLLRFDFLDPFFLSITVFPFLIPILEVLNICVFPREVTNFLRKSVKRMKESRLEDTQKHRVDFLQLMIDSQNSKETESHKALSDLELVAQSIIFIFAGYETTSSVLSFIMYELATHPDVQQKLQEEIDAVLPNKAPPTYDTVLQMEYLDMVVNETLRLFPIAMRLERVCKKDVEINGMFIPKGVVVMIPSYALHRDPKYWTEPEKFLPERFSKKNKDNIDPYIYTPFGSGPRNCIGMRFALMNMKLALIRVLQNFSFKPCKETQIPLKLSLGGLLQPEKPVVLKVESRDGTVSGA

| IC50 (UGT2B7) | inhibition at 100 µM (UGT2B7) | IC50 (UGT1A3) | inhibition at 100 µM (UGT1A3; human, human liver microsomes (HLM), probe chenodeoxycholic acid, HLM, 100 μM test compound) | IC50 (CYP3A4; CYP3A4, testosterone 6β-hydroxylase, HLM 0.2 mg/ml) | inhibition at 100 µM (CYP3A4; HLM, 100 μM ticagrelor-O-Glu, read-out: inhibition of CYP3A4 enzyme activity) | inhibitory effect on UGT1A3 (UGT1A3; HLM, concentration up to 100 μM) | Structure (SMILES) |
| --- | --- | --- | --- | --- | --- | --- | --- |
| > 100 µM | 39% | > 100 µM | 24.5% | – | – | – | CCCSc1nc(N[C@@H]2C[C@H]2c2ccc(F)c(F)c2)c2nnn([C@@H]3C[C@H](OCCO)[C@@H](O)[C@H]3O)c2n1 [Ticagrelor] |
| > 100 µM | 30.7% | > 100 µM | – | > 100 µM | 57.1% | no significant inhibitory effects | CCCSc1nc(N[C@@H]2C[C@H]2c2ccc(F)c(F)c2)c2nnn([C@@H]3C[C@H](OCCO[C@@H]4O[C@H](C(=O)O)[C@@H](O)[C@H](O)[C@H]4O)[C@@H](O)[C@H]3O)c2n1 [Ticagrelor-O-Glu, ticagrelor-O-glucuronide] |
